Laboratory results: patent US20080255213A1, “THIAZOLIDINONE AMIDES, THIAZOLIDINE CARBOXYLIC ACID AMIDES, AND SERINE AMIDES, INCLUDING POLYAMINE CONJUGATES THEREOF, AS SELECTIVE ANTI-CANCER AGENTS” (University of Tennessee Research Foundation, priority 2007, published 2008)

Experiments:
melanoma cells = assay: SRB cytotoxicity assay, statements not tied to one cell line; type: cell-based, human; details: for potency/activity in words: melanoma cells and fibroblast cells
Method: (§1) Cytotoxicity of these newly synthesized compounds was examined in two human melanoma cell lines (SK-MEL-188 and WM-164) and in a fibroblast cell line. Activity on fibroblast cells was used as a control to determine the selectivity of these compounds against melanoma. Standard sulforhodamine B (SRB) assay was used. Cells were exposed to a wide range of concentrations for 48 h in round-bottom 96-well plates. Cells were fixed with 10% trichloroacetic acid and washed five times with water. After cells were air-dried overnight and stained with SRB solution, total proteins were measured at 560 nm with a plate reader. IC50 (i.e., concentration which inhibited cell growth by 50% of DMSO-treated controls) values were obtained by nonlinear regression analysis with GraphPad Prism (GraphPad Software, San Diego, Calif.).
(§2) The ability of thiazolidine derivatives to inhibit the growth of two melanoma cancer cell lines and fibroblast cells is summarized in Table 1. […] At this early stage, all compounds were used as a diastereomeric mixture if they contain chiral centers in order to select the most promising compounds for further development.

[1] = system: SK-MEL-188 melanoma cell line; assay: Sulforhodamine B (SRB) cytotoxicity assay, SK-MEL-188; type: cell-based; details: Homo sapiens, 48 h exposure, diastereomeric mixtures, value ± standard error, read-out: IC50 ± SEM SK-MEL-188 (converted)
Method: as §1, §2

fibroblast cell line = assay: Sulforhodamine B (SRB) cytotoxicity assay, fibroblast control; type: cell-based; details: 48 h exposure, control for selectivity, value ± standard error, read-out: IC50 ± SEM Fibroblast (converted)
Method: as §1, §2

[2] = system: WM-164 melanoma cell line; assay: Sulforhodamine B (SRB) cytotoxicity assay, WM-164; type: cell-based; details: Homo sapiens, WM164, 48 h exposure, diastereomeric mixtures, value ± standard error, read-out: IC50 ± SEM WM-164 (converted)
Method: as §1, §2

| SMILES | selectivity: ratio of IC50 values for fibroblast cells over melanoma cells (melanoma cells; fibroblast IC50 / melanoma IC50) | potency against melanoma cells relative to compound 317 (times less potent) (melanoma cells; versus compound 317) | IC50 [1] | IC50 (fibroblast cell line) | IC50 [2] | selectivity in words (melanoma cells; melanoma versus fibroblast cells) | potency/activity in words (melanoma cells) | IC50 (melanoma cells; Homo sapiens, summary over the cell lines, read-out: IC50 in the in vitro assay (cell line not given)) |
| --- | --- | --- | --- | --- | --- | --- | --- | --- |
| CNC(=O)c1cc(Oc2ccc(NC(=O)Nc3ccc(Cl)c(C(F)(F)F)c3)cc2)ccn1 [Sorafenib, reference compound] | > 25 | about 10 times | 4.3 ± 0.2 µM | > 100 µM | 4.7 ± 0.3 µM | – | – | – |
| CCCCCCCCCCCCCCNC(=O)[C@@H]1CSC(c2ccccc2)N1 (stereo partly drawn) [Compound 321, (4R)-2-phenyl-N-tetradecylthiazolidine-4-carboxamide] | – | – | 1.9 µM | 2.8 µM | 0.6 µM | loss of selectivity | – | – |
| CCCCCCCCC/C=C/CCCCCCCNC(=O)[C@@H]1CSC(c2ccc(NC(C)=O)cc2)N1 (stereo partly drawn) [Compound 320E, (4R)-2-(4-acetamidophenyl)-N-((E)-octadec-8-enyl)thiazolidine-4-carboxamide] | – | – | 3.3 µM | 18 µM | 1.4 µM | – | restored potency dramatically | – |
| CCCCCCCCCCCCCCCCNC(=O)[C@@H]1CSC(c2ccccc2NC(C)=O)N1C (stereo partly drawn) [Compound 330, (4R)-2-(2-acetamidophenyl)-N-hexadecyl-3-methylthiazolidine-4-carboxamide] | – | – | 29.1 ± 1 µM | > 100 µM | > 100 µM | – | – | > 20 µM |
| CCCCCCCCC/C=C\CCCCCCCNC(=O)[C@@H]1CSC(c2ccc(NC(C)=O)cc2)N1 (stereo partly drawn) [Compound 320Z, (4R)-2-(4-acetamidophenyl)-N-((Z)-octadec-8-enyl)thiazolidine-4-carboxamide] | – | – | 1.4 µM | 10.6 µM | 1 µM | – | restored potency dramatically | – |
| CON(C)C(=O)[C@@H]1CSC(c2ccccc2)N1 (stereo partly drawn) [Compound 323, (4R)—N-methoxy-N-methyl-2-phenylthiazolidine-4-carboxamide] | – | – | > 100 µM | > 100 µM | > 100 µM | – | completely abolished potency | – |
